Test [1] relates to S. Typhimurium wild-type bacteria. In words: Antibiotic susceptibility with MIC strips (E-test) on PCN agar plates with 0.01% YE. In kind it is cell-based. To be noted: for susceptibility following the switch to acid pH: switch to acid pH (4.6), PBP3SAL expression; for MIC: Salmonella enterica, TYPHIMURIUM
An excerpt: S. Typhimurium cultures grown in PCN 4.6 were normalized to an optical density at 600 nm (OD600) of 0.1 and diluted 1:10. One hundred twenty microliters of this dilution were spread onto PCN plates using glass beads. The assays were repeated at least in three independent biological replicates.

Test [2] has as its system intra-phagosomal S. Typhimurium lacking PBP3SAL in RAW 264.7 macrophages. Description: Macrophage infection and colony-forming unit counting. Particulars: 10 µg/mL added to infected macrophages; compared with bacteria lacking PBP3. In kind it is cell-based. Here is the method:
The murine macrophage line RAW 264.7 (400319, Cell Lines Service, CLS, https://clsgmbh.de/) was cultured in Dulbecco's modified Eagle's medium (DMEM) with 5% fetal bovine serum (FBS) and 4 mM glutamine in an incubator at 37°C in a 5% CO2 atmosphere. RAW 264.7 macrophages were seeded in 24-well plates (353047, Falcon) at a density of 2x10^5 cells/well and pre-cultured for 24 h before infection. Macrophages were activated with 2.5 ng/ml interferon-γ (315-05, Peprotech) 24 h prior infection. Culture medium was replaced by fresh medium without interferon-γ and infected with S. Typhimurium strains at a multiplicity of infection (MOI) of 10:1 during 10 min. Macrophages were washed with PBS supplemented with 0.5 mM MgCl2 and 0.9 mM CaCl2 (complete PBS) and extracellular non-phagocytosed bacteria were killed by incubation in medium containing gentamicin (100 µg/ml for 1 h, followed by 10 µg/ml for the remaining incubation). If indicated, aztreonam (ATM) (10 µg/mL) was added at 1 hpi. Infected macrophages were lysed at 1 and 8 hpi. Colony-forming units (CFU) were determined after two washes of the culture with complete PBS buffer, lysis with sterile solution containing 1% (w/v) Triton X 100 and 0.1% (w/v) sodium dodecyl sulfate (SDS) in PBS and plating on LB pH 7.0 or LB pH 4.6. The assays were repeated at least in three independent biological replicates.

For test [3], the system named is S. Typhimurium bacteria lacking PBP3SAL. In words: BALB/c mice challenge, bacterial load in spleen. In kind it is in vivo. Particulars: intraperitoneal, every 24 h. The protocol: (§1) Groups of three 8-week-old female BALB/c mice were inoculated with the following isogenic strains: MD5064 (PBP2SAL::3xFlag PBP3SAL::3xFlag), MD5063 (ΔPBP2, ΔPBP2SAL), MD5544 (ΔPBP2 ΔPBP2SAL pPBP2SAL::PBP2), MD5542 (ΔPBP3, ΔPBP3SAL and ΔPBP3 ΔPBP3SAL pPBP3SAL::PBP3). The doses used were 2x10^3 CFU in 200 µl of sterile PBS. Along four days, mice received intraperitoneally every 24 h a regime consisting in 10 mg mecillinam (MEC) or 2.5 mg aztreonam (ATM) per animal in 200 µl of sterile water. Mice were sacrificed four days post inoculation and spleens homogenized in 5 ml of sterile PBS. Aliquots (100 µl) of 10-fold serial dilutions of the homogenates were cultured in LB pH 4.6 plates to quantify the number of viable S. Typhimurium. To detect PBPs in vivo, spleen extracts from three mice were prepared at 72 hpi as described previously (Dominguez-Bernal, G. et al. Mol Microbiol. 2004; 53: 1437-1449). The protocols used in the study were approved by the Consejería de Medio Ambiente de la Comunidad de Madrid (ref. PROEX 110/19).

The test system of test [4] is S. Typhimurium mutant lacking PBP3. In words: BALB/c mice challenge, bacterial load in spleen. In kind it is in vivo. To be noted: intraperitoneal, every 24 h. The protocol: as §1
Test [5] has as its system S. Typhimurium wild-type bacteria. Description: BALB/c mice challenge, bacterial load in spleen. In kind it is in vivo. Particulars: intraperitoneal, every 24 h. The protocol:
as §1

Test [6] deals with S. Typhimurium mutants lacking PBP3SAL. In words: Spot dilution assay on PCN plates with antibiotic. Particulars: pH 4.6. Format: cell-based. The protocol:
(§2) PCN plates for spot dilution assays were prepared by mixing 7.5 ml of sterile PCN medium (2x concentrated) at the desired pH and 7.5 ml of autoclaved agar (30 mg/mL). The mixture was supplemented with 0.01% (w/v) yeast extract (YE). Cultures were grown in PCN pH 4.6 medium overnight and adjusted to same optical density values. These cultures were serially 10-fold diluted. 5 µl of each dilution was spotted onto PCN plates with or without antibiotic added.

Test [7] relates to S. Typhimurium (wild-type). Description: Spot dilution assay on PCN plates with antibiotic. Format: cell-based. Particulars: MEC 5 µg/mL, ATM 0.125 µg/mL. Here is the method:
as §2

The test system of test [8] is S. Typhimurium bacteria lacking PBP3 (ΔPBP3 mutant). Description: Antibiotic susceptibility with MIC strips (E-test) on PCN agar plates with 0.01% YE. In kind it is cell-based. Particulars: Salmonella enterica, pH 4.6, read-out: MIC value. The protocol:
Antibiotic susceptibility was determined using MIC strips (MIC Test Strip; Liofilchem) in PCN agar plates containing 0.01% YE at neutral or acid pH 4.6. S. Typhimurium cultures grown in PCN 4.6 were normalized to an optical density at 600 nm (OD600) of 0.1 and diluted 1:10. One hundred twenty microliters of this dilution were spread onto PCN plates using glass beads. The assays were repeated at least in three independent biological replicates.

For test [9], the system named is S. Typhimurium mutant lacking PBP2. In words: BALB/c mice challenge, bacterial load in spleen. Format: in vivo. Particulars: intraperitoneal, every 24 h. The protocol: as §1
The test system of test [10] is S. Typhimurium bacteria lacking PBP2SAL. Description: BALB/c mice challenge, bacterial load in spleen. Format: in vivo. Particulars: intraperitoneal, every 24 h. The protocol: as §1
In test [11] the test system is S. Typhimurium mutant lacking PBP2. Description: Spot dilution assay on PCN plates with antibiotic. In kind it is cell-based. Here is the method: as §2
The subject of test [12] is S. Typhimurium mutant lacking PBP2SAL. In words: Spot dilution assay on PCN plates with antibiotic. Format: cell-based. Particulars: pH 4.6. Here is the method: as §2
Setting [13] is: pH 4.6, PCN-0.01% yeast extract.

Converted amounts (≈) assume the structure as drawn. “Also recorded” adds a separate entry of the source.

Take `CO/N=C(\C(=O)N[C@@H]1C(=O)N2C(C(=O)O)=C(COC(N)=O)CS[C@H]12)c1ccco1` [cefuroxime]: in [1], the “susceptibility following the switch to acid pH” value was “decreased susceptibility”.
In the case of `C[C@H]1[C@H](NC(=O)/C(=N\OC(C)(C)C(=O)O)c2csc(N)n2)C(=O)N1S(=O)(=O)O` [ATM, aztreonam], the “susceptibility of intra-phagosomal bacteria” value in [2] is “more susceptible”. Besides, in [3], the bacterial loads result was “significant decrease of bacterial loads”. In test [4], the “effect on bacterial loads” value is “lesser effect”. Moreover, in test [5], the “load of bacteria in spleen” value is recorded as “did not result in a statistically significant decrease”. In addition, in test [6], the antimicrobial activity result is given as “showed antimicrobial activity”. Further, the “susceptibility (bacterial growth)” value in test [7] (setting [13]) was “not at pH 4.6; also recorded: resistant”; in test [7] (pH 7.4), “inhibit bacterial growth; also recorded: susceptible”. Also, the figures for the MIC in test [1] (pH 4.6), in test [1] (pH 7.4) and in test [8] were 0.125 µg/mL (≈ 0.287 µM), less than 0.016 µg/mL and 0.75 µg/mL (≈ 1.72 µM), respectively.
On to `CC(C)(O/N=C(\C(=O)N[C@@H]1C(=O)N2C(C(=O)[O-])=C(C[n+]3ccccc3)CS[C@H]12)c1csc(N)n1)C(=O)O` [ceftazidime], for which the “susceptibility following the switch to acid pH” value in test [1] was “decreased susceptibility”.
Same read-out and setting: under `CC(=O)OCC1=C(C(=O)O)N2C(=O)[C@@H](NC(=O)Cc3cccs3)[C@H]2SC1` [cephalotin] stands “decreased susceptibility”.
The same measure, in the same setting: with `CO/N=C(\C(=O)N[C@@H]1C(=O)N2C(C(=O)O)=C(COC(C)=O)CS[C@H]12)c1csc(N)n1` [cefotaxime] the entry was “decreased susceptibility”.
`CC1(C)S[C@@H]2[C@H](/N=C/N3CCCCCC3)C(=O)N2[C@H]1C(=O)O` [MEC, mecillinam]: the “effect on bacterial loads” value in test [9] is given as “lesser effect”. Moreover, the “load of bacteria in spleen” value in test [5] is recorded as “did not result in a statistically significant decrease; also recorded: slightly effect of reduced viability”. Further, in test [10], the bacterial loads result is listed as “significant decrease of bacterial loads”. The results for the susceptibility entry in test [11] (pH 4.6), in test [11] (pH 7.4) and in test [12] were “does not alter susceptibility”, “resistant” and “does not alter susceptibility”, respectively. Further, the entries for the “susceptibility (bacterial growth)” value in test [7] (setting [13]) and in [7] (pH 7.4) were “not at pH 4.6” and “inhibit bacterial growth”, respectively.

The values above are taken from patent EP3851117A1, “INHIBITORS OF INTRACELLULAR BACTERIAL GROWTH AND PERSISTENCE AS ANTIBIOTICS” (Consejo Superior de Investigaciones Científicas (CSIC), priority 2020, dated 2021).
